{
  "source": "PubChem BioAssay (NCI)",
  "assay_in_all_cases": "DTP human tumour cell line panel, 48 h",
  "key": {"SW-620 colon": {"tested_on": "SW-620 colon"}, "RPMI-8226 leukemia": {"tested_on": "RPMI-8226 leukemia"}, "SR leukemia": {"tested_on": "SR leukemia"}, "NCI-H522 lung": {"tested_on": "NCI-H522 lung"}, "XF 498 CNS": {"tested_on": "XF 498 CNS"}, "U251 CNS": {"tested_on": "U251 CNS"}, "MALME-3M melanoma": {"tested_on": "MALME-3M melanoma"}, "K-562 leukemia": {"tested_on": "K-562 leukemia"}, "NCI-H23 lung": {"tested_on": "NCI-H23 lung"}, "CAKI-1 renal": {"tested_on": "CAKI-1 renal"}, "RXF 393 renal": {"tested_on": "RXF 393 renal"}, "SNB-75 CNS": {"tested_on": "SNB-75 CNS"}, "RXF-631 renal": {"tested_on": "RXF-631 renal"}, "DMS 114 small cell lung": {"tested_on": "DMS 114 small cell lung"}, "SK-MEL-5 melanoma": {"tested_on": "SK-MEL-5 melanoma"}, "OVCAR-3 ovarian": {"tested_on": "OVCAR-3 ovarian"}, "HOP-92 NSCLC": {"tested_on": "HOP-92 NSCLC"}, "MOLT-4 leukemia": {"tested_on": "MOLT-4 leukemia"}, "SK-OV-3 ovarian": {"tested_on": "SK-OV-3 ovarian"}, "ACHN renal": {"tested_on": "ACHN renal"}, "IGROV1 ovarian": {"tested_on": "IGROV1 ovarian"}, "HOP-18 NSCLC": {"tested_on": "HOP-18 NSCLC"}, "M14 melanoma": {"tested_on": "M14 melanoma"}, "SF-539 CNS": {"tested_on": "SF-539 CNS"}, "SNB-19 CNS": {"tested_on": "SNB-19 CNS"}, "A549 NSCLC": {"tested_on": "A549 NSCLC"}, "NCI-H460 lung": {"tested_on": "NCI-H460 lung"}, "OVCAR-5 ovarian": {"tested_on": "OVCAR-5 ovarian"}, "OVCAR-4 ovarian": {"tested_on": "OVCAR-4 ovarian"}, "LOX IMVI melanoma": {"tested_on": "LOX IMVI melanoma"}, "HOP-62 NSCLC": {"tested_on": "HOP-62 NSCLC"}, "NCI-H226 lung": {"tested_on": "NCI-H226 lung"}, "HCC-2998 colon": {"tested_on": "HCC-2998 colon"}, "UACC-257 melanoma": {"tested_on": "UACC-257 melanoma"}, "HL-60(TB) leukemia": {"tested_on": "HL-60(TB) leukemia"}, "LXFL 529 NSCLC": {"tested_on": "LXFL 529 NSCLC"}, "DMS 273 small cell lung": {"tested_on": "DMS 273 small cell lung"}, "TK-10 renal": {"tested_on": "TK-10 renal"}, "M19-MEL melanoma": {"tested_on": "M19-MEL melanoma"}, "SK-MEL-28 melanoma": {"tested_on": "SK-MEL-28 melanoma"}, "COLO 205 colon": {"tested_on": "COLO 205 colon"}, "A498 renal": {"tested_on": "A498 renal"}, "HCT-15 colon": {"tested_on": "HCT-15 colon"}, "UACC-62 melanoma": {"tested_on": "UACC-62 melanoma"}, "OVCAR-8 ovarian": {"tested_on": "OVCAR-8 ovarian"}, "SF-268 CNS": {"tested_on": "SF-268 CNS"}, "SNB-78 CNS": {"tested_on": "SNB-78 CNS"}, "SF-295 CNS": {"tested_on": "SF-295 CNS"}, "CCRF-CEM leukemia": {"tested_on": "CCRF-CEM leukemia"}, "KM20L2 colon": {"tested_on": "KM20L2 colon"}, "KM12 colon": {"tested_on": "KM12 colon"}, "SK-MEL-2 melanoma": {"tested_on": "SK-MEL-2 melanoma"}, "786-0 renal": {"tested_on": "786-0 renal"}, "SN12C renal": {"tested_on": "SN12C renal"}, "EKVX NSCLC": {"tested_on": "EKVX NSCLC"}, "HT29 colon": {"tested_on": "HT29 colon"}, "UO-31 renal": {"tested_on": "UO-31 renal"}, "HCT-116 colon": {"tested_on": "HCT-116 colon"}, "DLD-1 colon": {"tested_on": "DLD-1 colon"}},
  "note": "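A five-concentration, 48-hour dose response in 96-well plates underlies each endpoint, interpolated linearly between surrounding concentrations. At the TGI there is no net growth.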",
  "data": [
    {"smiles": "NCCc1ccc2oc3cc(=O)c4ccccc4c-3nc2c1", "values": [
      {"measurement": "TGI", "setting": "SW-620 colon", "value": 5.95, "unit": "µM"},
      {"measurement": "TGI", "setting": "RPMI-8226 leukemia", "value": 23.2, "unit": "µM"},
      {"measurement": "TGI", "setting": "SR leukemia", "value": 4.67, "unit": "µM"},
      {"measurement": "TGI", "setting": "NCI-H522 lung", "value": 7.66, "unit": "µM"},
      {"measurement": "TGI", "setting": "XF 498 CNS", "value": 7.01, "unit": "µM"},
      {"measurement": "TGI", "setting": "U251 CNS", "value": 10.6, "unit": "µM"},
      {"measurement": "TGI", "setting": "MALME-3M melanoma", "value": 4.37, "unit": "µM"},
      {"measurement": "TGI", "setting": "K-562 leukemia", "value": 6.95, "unit": "µM"},
      {"measurement": "TGI", "setting": "NCI-H23 lung", "value": 2.39, "unit": "µM"},
      {"measurement": "TGI", "setting": "CAKI-1 renal", "value": 24, "unit": "µM"},
      {"measurement": "TGI", "setting": "RXF 393 renal", "value": 9.94, "unit": "µM"},
      {"measurement": "TGI", "setting": "SNB-75 CNS", "value": 6.06, "unit": "µM"},
      {"measurement": "TGI", "setting": "RXF-631 renal", "value": 8.88, "unit": "µM"},
      {"measurement": "TGI", "setting": "DMS 114 small cell lung", "value": 2.85, "unit": "µM"},
      {"measurement": "TGI", "setting": "SK-MEL-5 melanoma", "value": 2.13, "unit": "µM"},
      {"measurement": "TGI", "setting": "OVCAR-3 ovarian", "value": 8.12, "unit": "µM"},
      {"measurement": "TGI", "setting": "HOP-92 NSCLC", "value": 21.6, "unit": "µM"},
      {"measurement": "TGI", "setting": "MOLT-4 leukemia", "value": 5.52, "unit": "µM"},
      {"measurement": "TGI", "setting": "SK-OV-3 ovarian", "value": 24.4, "unit": "µM"},
      {"measurement": "TGI", "setting": "ACHN renal", "value": 12, "unit": "µM"},
      {"measurement": "TGI", "setting": "IGROV1 ovarian", "value": 15.5, "unit": "µM"},
      {"measurement": "TGI", "setting": "HOP-18 NSCLC", "value": 4.67, "unit": "µM"},
      {"measurement": "TGI", "setting": "M14 melanoma", "value": 4.18, "unit": "µM"},
      {"measurement": "TGI", "setting": "SF-539 CNS", "value": 6.35, "unit": "µM"},
      {"measurement": "TGI", "setting": "SNB-19 CNS", "value": 11, "unit": "µM"},
      {"measurement": "TGI", "setting": "A549 NSCLC", "value": 2.18, "unit": "µM"},
      {"measurement": "TGI", "setting": "NCI-H460 lung", "value": 2.76, "unit": "µM"},
      {"measurement": "TGI", "setting": "OVCAR-5 ovarian", "value": 15.4, "unit": "µM"},
      {"measurement": "TGI", "setting": "OVCAR-4 ovarian", "value": 15.8, "unit": "µM"},
      {"measurement": "TGI", "setting": "LOX IMVI melanoma", "value": 4.42, "unit": "µM"},
      {"measurement": "TGI", "setting": "HOP-62 NSCLC", "value": 10.3, "unit": "µM"},
      {"measurement": "TGI", "setting": "NCI-H226 lung", "value": 17.5, "unit": "µM"},
      {"measurement": "TGI", "setting": "HCC-2998 colon", "value": 6.78, "unit": "µM"},
      {"measurement": "TGI", "setting": "UACC-257 melanoma", "value": 7.4, "unit": "µM"},
      {"measurement": "TGI", "setting": "HL-60(TB) leukemia", "value": 3.42, "unit": "µM"},
      {"measurement": "TGI", "setting": "LXFL 529 NSCLC", "value": 13.4, "unit": "µM"},
      {"measurement": "TGI", "setting": "DMS 273 small cell lung", "value": 3.11, "unit": "µM"},
      {"measurement": "TGI", "setting": "TK-10 renal", "value": 27.3, "unit": "µM"},
      {"measurement": "TGI", "setting": "M19-MEL melanoma", "value": 0.894, "unit": "µM"},
      {"measurement": "TGI", "setting": "SK-MEL-28 melanoma", "value": 10.7, "unit": "µM"},
      {"measurement": "TGI", "setting": "COLO 205 colon", "value": 1.81, "unit": "µM"},
      {"measurement": "TGI", "setting": "A498 renal", "value": 26.3, "unit": "µM"},
      {"measurement": "TGI", "setting": "HCT-15 colon", "value": 5.01, "unit": "µM"},
      {"measurement": "TGI", "setting": "UACC-62 melanoma", "value": 8.58, "unit": "µM"},
      {"measurement": "TGI", "setting": "OVCAR-8 ovarian", "value": 10.6, "unit": "µM"},
      {"measurement": "TGI", "setting": "SF-268 CNS", "value": 15.4, "unit": "µM"},
      {"measurement": "TGI", "setting": "SNB-78 CNS", "value": 23.3, "unit": "µM"},
      {"measurement": "TGI", "setting": "SF-295 CNS", "value": 9.48, "unit": "µM"},
      {"measurement": "TGI", "setting": "CCRF-CEM leukemia", "value": 4.49, "unit": "µM"},
      {"measurement": "TGI", "setting": "KM20L2 colon", "value": 9.12, "unit": "µM"},
      {"measurement": "TGI", "setting": "KM12 colon", "value": 8.35, "unit": "µM"},
      {"measurement": "TGI", "setting": "SK-MEL-2 melanoma", "value": 5.16, "unit": "µM"},
      {"measurement": "TGI", "setting": "786-0 renal", "value": 4.89, "unit": "µM"},
      {"measurement": "TGI", "setting": "SN12C renal", "value": 7.22, "unit": "µM"},
      {"measurement": "TGI", "setting": "EKVX NSCLC", "value": 25.1, "unit": "µM"},
      {"measurement": "TGI", "setting": "HT29 colon", "value": 4.35, "unit": "µM"},
      {"measurement": "TGI", "setting": "UO-31 renal", "value": 9.37, "unit": "µM"},
      {"measurement": "TGI", "setting": "HCT-116 colon", "value": 2.87, "unit": "µM"},
      {"measurement": "TGI", "setting": "DLD-1 colon", "value": 9.34, "unit": "µM"}
    ]}
  ]
}
